Twelve compounds from US12662482B2 (The Johns Hopkins University, priority 2020, dated 2026) can be followed below.

Each structure is given as a SMILES string. Structures can show the parent of a compound that is named as a salt.

This experiment concerns RPA194. Description: RPA194 destruction / Pol I inhibition, high-content imaging in A375 cells. Type of experiment: cell-based. To be noted: A375 cells treated for 4 hours, anti-RPA194 immunofluorescence; pIC50 >= 5.02 deemed a Pol I inhibitor. How it is done:
Cell culture: A375 cells (CRL-1619, ATCC) were grown in DMEM (GJBCO) supplemented with […] (GTBCO) in 5% CO2 at 37° C.
Cell treatment and Imaging: 18 hours post-seeding in cell carrier black 384-well plates (PerkinElmer) at 15 000 cells/well, A375 cells were treated for 4 hours with a positive control or test compounds (9 serial semi-log dilutions, top concentration 10 μM). Upon treatment A375 cells were (i) fixed for 15 min at RT with 4% of paraformaldehyde, (ii) permeabilized for 20 min at RT with 0.1-0.5% of NP-40, (iii) incubated with primary antibodies at 4° C.: anti-RPA194 (1:1000-1:1250 dilution, sc-48385, Santa Cruz Biotechnology) and anti-gH2Ax (1:5000 dilution, 81299, Abcam or 1:4000, JBW302, Millipore) (iv) incubated for 1 h at RT with Hoechst (1:5000 dilution, H3570, ThermoFisher) and secondary antibodies: anti-mouse-AlexaFluor488 (1:2000 dilution, A11001, ThermoFisher) and anti-rabbit-AlexaFluor647 (1:2000 dilution, A21443, ThermoFisher) or goat anti-mouse AlexaFluor-594 (1:1000 dilution). Images were acquired on an Operetta CLS High-Content Analysis System (PerkinElmer) (40× objective; 9 fields/well) and processed using the Columbus Image Analysis System (PerkinElmer) or by using Molecular Devices ImageXpress Micro XLS High Content Imager and MetaXpress high-content acquisition and analysis software.
In the table below, (+) is associated with a pIC50 5.02 to 5.8; (++) with pIC50 5.8 to 6.3; and (+++) with a pIC50 above 6.3.

On to `CNC(C)CNC(=O)c1cccn2c(=O)c3ccc4ccccc4c3nc12` (single isomer, unassigned) [Example 19, (S or R)-N-(2-(methylamino)propyl)-7-oxo-7H-benzo[h]pyrido[2,1-b]quinazoline-12-carboxamide; hydrochloride], for which the “Activity Range (pIC50)” value is recorded as “++ ((++) with pIC50 5.8 to 6.3)”.

As to `CNC(C)CNC(=O)c1cccn2c(=O)c3ccc4ccccc4c3nc12` (single isomer, unassigned) [Example 20, (R or S)-N-(2-(methylamino)propyl)-7-oxo-7H-benzo[h]pyrido[2,1-b]quinazoline-12-carboxamide; hydrochloride], the “Activity Range (pIC50)” value is on record as “++ ((++) with pIC50 5.8 to 6.3)”.

Turning to `CN(C)CCNC(=O)c1cccn2c(=O)c3ccc4ccccc4c3nc12` [Example 1, hydrochloride], the “Activity Range (pIC50)” value is “+++ ((+++) with a pIC50 above 6.3)”.

For `O=C(NCCN1CC[C@H](O)C1)c1cccn2c(=O)c3ccc4ccccc4c3nc12` [Example 2, (S)-N-(2-(3-hydroxypyrrolidin-1-yl)ethyl)-7-oxo-7H-benzo[h]pyrido[2,1-b]quinazoline-12-carboxamide; hydrochloride], the “Activity Range (pIC50)” value is recorded as “+++ ((+++) with a pIC50 above 6.3)”.

For `O=C(NCCN1CC[C@@H](O)C1)c1cccn2c(=O)c3ccc4ccccc4c3nc12` [Example 3, (R)-N-(2-(3-hydroxypyrrolidin-1-yl)ethyl)-7-oxo-7H-benzo[h]pyrido[2,1-b]quinazoline-12-carboxamide; hydrochloride], the “Activity Range (pIC50)” value is “+++ ((+++) with a pIC50 above 6.3)”.

For `O=C(NCCN1CCCC1)c1cccn2c(=O)c3ccc4ccccc4c3nc12` [Example 4, 7-oxo-N-(2-(pyrrolidin-1-yl)ethyl)-7H-benzo[h]pyrido[2,1-b]quinazoline-12-carboxamide hydrochloride], the “Activity Range (pIC50)” value is listed as “+++ ((+++) with a pIC50 above 6.3)”.

Turning to `O=C(NCCN1CCC(O)CC1)c1cccn2c(=O)c3ccc4ccccc4c3nc12` [Example 5, N-(2-(4-hydroxypiperidin-1-yl)ethyl)-7-oxo-7H-benzo[h]pyrido[2,1-b]quinazoline-12-carboxamide hydrochloride], the “Activity Range (pIC50)” value was “+++ ((+++) with a pIC50 above 6.3)”.

With `CN(C)C(C)(C)CNC(=O)c1cccn2c(=O)c3ccc4ccccc4c3nc12` [Example 6, N-(2-(dimethylamino)-2-methylpropyl)-7-oxo-7H-benzo[h]pyrido[2,1-b]quinazoline-12-carboxamide hydrochloride], the “Activity Range (pIC50)” value is reported as “++ ((++) with pIC50 5.8 to 6.3)”.

For the compound `O=C(NCCN1C[C@@H](O)[C@H](O)C1)c1cccn2c(=O)c3ccc4ccccc4c3nc12` [Example 7, N-(2-((3R,4R)-3,4-dihydroxy-pyrrolidin-1-yl)ethyl)-7-oxo-7H-benzo[h]pyrido[2,1-b]quinazoline-12-carboxamide hydrochloride], the “Activity Range (pIC50)” value is “+++ ((+++) with a pIC50 above 6.3)”.

With `O=C(NC1CNC1)c1cccn2c(=O)c3ccc4ccccc4c3nc12` [Example 8, N-(azetidin-3-yl)-7-oxo-7H-benzo[h]pyrido[2,1-b]quinazoline-12-carboxamide dihydrochloride], the “Activity Range (pIC50)” value is “+ ((+) is associated with a pIC50 5.02 to 5.8)”.

With `CN1CC(NC(=O)c2cccn3c(=O)c4ccc5ccccc5c4nc23)C1` [Example 9, N-(1-methylazetidin-3-yl)-7-oxo-7H-benzo[h]pyrido[2,1-b]quinazoline-12-carboxamide hydrochloride], the “Activity Range (pIC50)” value is given as “++ ((++) with pIC50 5.8 to 6.3)”.

As for `C[C@@H](CNC(=O)c1cccn2c(=O)c3ccc4ccccc4c3nc12)N(C)C` [Example 10, (S)-N-(2-(dimethylamino)propyl)-7-oxo-7H-benzo[h]pyrido[2,1-b]quinazoline-12-carboxamide; hydrochloride], the “Activity Range (pIC50)” value is listed as “++ ((++) with pIC50 5.8 to 6.3)”.
